According to patent US20250361243A1, “Compounds and Pharmaceutical Compositions Useful for Managing Sickle Cell Disease and Conditions Related Thereto” (Emory University, priority 2022, published 2025):
Where two headings read alike, the source gives them in different places.

Legend:
Format in all cases: cell-based
ss Mouse RBC = assay: Imaging-based anti-sickling assay, ss mouse RBC; conditions: read-out: Anti-sickling activity (EC50; μM) ss Mouse RBC
Text: (§1) An imaging assay utilizing automated microscopy and customized algorithms was used to detect sickled or normal (round shaped) RBCs. The assay is capable of discovering anti-sickling agents with physiologically relevant oxygen affinity. The assay uses native mouse or human RBCs, enabling one to identify a broader spectrum of agents and is not restricted to compounds that require direct interaction (e.g., with purified hemoglobin). Thus, in contrast to hemoglobin binding assays, this approach allows for the identification of additional classes of anti-sickling agents that modulate pathways affecting RBC sickling. Compounds resulting from the experiments are also useful for investigating SCD pathophysiology.
(§2) The imaging-based protocol that can distinguish sickled vs normal (round) phenotype of intact RBCs originating from genetically engineered mice expressing human hemoglobin genes (the HbSS Townes knock-in sickle mice), or 2) SCD patients. The imaging was conducted using a BioTek Cytation™ cell imaging multimode reader and software to detect sickled or normal round-shaped phenotype of RBCs with negative control (vehicle treatment) and a positive control, 5-hydroxymethylfurfural (5-HMF).

Human RBC = assay: Imaging-based anti-sickling assay, human RBC
Text: as §1, §2

RBCs = assay: Anti-sickling activity normalized to 5 mM 5-HMF (Table 2); conditions: for EC50: read-out: EC50 for anti-sickling activity (uM, normalized to positive control of 5 mM 5-HMF)
Text: as §1, §2

[1] = Homo sapiens; read-out: Anti-sickling activity (EC50; μM) Human RBC

| SMILES | EC50 (ss Mouse RBC) [µM] | EC50 (Human RBC; [1]) [µM] | other results |
| --- | --- | --- | --- |
| O=C1C=CC(=O)N1CCCCN1C(=O)C=CC1=O [HDYB-9] | 29 | 78 | – |
| O=C1C=CC(=O)N1c1cccnc1 [HDYB-15] | < 100 | < 100 | – |
| O=C1C=CC(=O)N1c1cccc(F)c1 [HDYB-24, 1-(3-fluorophenyl)-1H-pyrrole-2,5-dione] | 11 | 14 | – |
| Cc1ccc(Cl)cc1N1C(=O)C=CC1=O [HDYB-12, 1-(5-chloro-2-methylphenyl)-1H-pyrrole-2,5-dione] | 16 | 12 | – |
| O=C1C=CC(=O)N1c1cccc(Cl)c1 [HDYB-1, 1-(3-chlorophenyl)-1H-pyrrole-2,5-dione] | 5 | 6.3 | – |
| O=C1OCc2ccc(N3C(=O)C=CC3=O)cc21 [HDYB-27, 1-(3-oxo-1,3-dihydroisobenzofuran-5-yl)-1H-pyrrole-2,5-dione] | 10 | 11 | – |
| O=C1C=CC(=O)N1c1ccc2c(c1)CCO2 [HDYB-26, 1-(2,3-dihydrobenzofuran-5-yl)-1H-pyrrole-2,5-dione] | 9 | 13 | – |
| O=C1C=CC(=O)N1c1ccc(-c2ccccc2)cc1 [HDYB-23, 1-([1,1′-biphenyl]-4-yl)-1H-pyrrole-2,5-dione] | 68 | – | EC50 (Human RBC; Homo sapiens, read-out: Anti-sickling activity (EC50; μM) Human RBC): 52 µM |
| O=C1C(=O)N(Cc2ccccc2)c2ccc(Cl)cc21 [HDYB-19] | 27 | 25 | – |
| O=C1C=CC(=O)N1c1ccc(Br)c(Cl)c1 [HDYB-14, 1-(4-bromo-3-chlorophenyl)-1H-pyrrole-2,5-dione] | 27 | 23 | – |
| CC(C)(C)SCC(O)Cn1c2ccc(Cl)cc2c2cc(Cl)ccc21 (stereo not shown) [SCAS2_61, 1-(tert-butylthio)-3-(3,6-dichloro-9H-carbazol-9-yl) propan-2-ol] | – | – | EC50 (RBCs): 3.12 µM |
| Nc1nc2ccc(S(=O)(=O)N3CCCCC3)cc2s1 [SCAS2_02, 6-(piperidin-1-ylsulfonyl)benzo[d]thiazol-2-amine] | – | – | EC50 (RBCs): 25.4 µM |
| O=C1C(=O)N(Cc2ccc(C(F)(F)F)cc2)c2ccc(Cl)cc21 [HDYB-20] | 22 | 26 | – |
| O=C1C=CC(=O)N1c1ccc(I)cc1 [HDYB-22, 1-(4-iodophenyl)-1H-pyrrole-2,5-dione] | 13 | 41 | – |
| Cc1ccc(N2C(=O)C=CC2=O)cc1 [HDYB-21, 1-(p-tolyl)-1H-pyrrole-2,5-dione] | 37 | 32 | – |
| O=C1C=CC(=O)N1c1cc(Cl)c(N2C(=O)C=CC2=O)cc1Cl [HDYB-25, 1,1′-(2,5-dichloro-1,4-phenylene)bis(1H-pyrrole-2,5-dione)] | 10 | 12 | – |
| CC(C)CCNCC(O)Cn1c2ccc(Cl)cc2c2cc(Cl)ccc21 (stereo not shown) [SCAS2-A2, 1-(3,6-dichloro-9H-carbazol-9-yl)-3-(isopentylamino) propan-2-ol] | – | – | Anti-sickling activity (%, normalized to positive control of 5 mM 5-HMF) (RBCs; 10 uM): 21.45%; Anti-sickling activity (%, normalized to positive control of 5 mM 5-HMF) (RBCs; 33 uM): 25.26%; Anti-sickling activity (%, normalized to positive control of 5 mM 5-HMF) (RBCs; 100 uM): 213.95% |
| O=C1C=C(Nc2ccccc2)C(=O)N1c1ccccc1 [HDYB-11] | < 100 | < 100 | – |
| CCC(C)NCC(O)Cn1c2ccc(Cl)cc2c2cc(Cl)ccc21 (stereo not shown) [SCAS2-A14, 1-(sec-butylamino)-3-(3,6-dichloro-9H-carbazol-9-yl) propan-2-ol] | – | – | Anti-sickling activity (%, normalized to positive control of 5 mM 5-HMF) (RBCs; 10 uM): 24.26%; Anti-sickling activity (%, normalized to positive control of 5 mM 5-HMF) (RBCs; 33 uM): 78.71%; Anti-sickling activity (%, normalized to positive control of 5 mM 5-HMF) (RBCs; 100 uM): 131.87% |
| Cc1cc(Cl)cc(-c2ccccc2)c1N1C(=O)C=CC1=O [HDYB-8, 1-(5-chloro-3-methyl-[1,1′-biphenyl]-2-yl)-1H-pyrrole-2,5-dione] | < 100 | < 100 | – |
| COc1ccc(Cl)cc1NC(=O)Nc1nc2c(s1)CN(S(=O)(=O)N(C)C)CC2 [SCAS2_01, 2-(3-(5-chloro-2-methoxyphenyl)ureido)-N,N-dimethyl-6,7-dihydrothiazolo[5,4-c]pyridine-5 (4H)-sulfonamide] | – | – | EC50 (RBCs): 1.1 µM |
| Cc1ccc(N2C(=O)C=CC2=O)cc1Cl [HDYB-2, 1-(3-chloro-4-methylphenyl)-1H-pyrrole-2,5-dione] | 15 | 19 | – |
| CC(C)CCNCC(O)Cn1c2ccc(Br)cc2c2cc(Br)ccc21 (stereo not shown) [SCAS2-A13, 1-(3,6-dibromo-9H-carbazol-9-yl)-3-(isopentylamino) propan-2-ol] | – | – | Anti-sickling activity (%, normalized to positive control of 5 mM 5-HMF) (RBCs; 10 uM): 71.04%; Anti-sickling activity (%, normalized to positive control of 5 mM 5-HMF) (RBCs; 33 uM): 90.158%; Anti-sickling activity (%, normalized to positive control of 5 mM 5-HMF) (RBCs; 100 uM): 35.39% |
| O=C1C=CC(=O)N1c1cccc(C(F)(F)F)c1 [HDYB-3, 1-(3-(trifluoromethyl)phenyl)-1H-pyrrole-2,5-dione] | 12 | 12 | – |
| O=C1C=CC(=O)N1c1cnc2ccccc2c1 [HDYB-17] | < 100 | < 100 | – |
| O=C1C=CC(=O)N1c1cccc(N2C(=O)C=CC2=O)c1 [HDYB-10] | 78 | 57 | – |
| O=C1C=CC(=O)N1c1ccc(Br)cc1Cl [HDYB-6, 1-(4-bromo-2-chlorophenyl)-1H-pyrrole-2,5-dione] | 20 | 12 | – |
| Cc1ccc(N2C(=O)C=CC2=O)nc1 [HDYB-16] | < 100 | < 100 | – |
| COc1ccc(Cl)cc1NC(=O)Nc1nc2c(s1)CN(S(=O)(=O)C1CC1)CC2 [SCAS2_05, 1-(5-chloro-2-methoxyphenyl)-3-(5-(cyclopropylsulfonyl)-4,5,6,7-tetrahydrothiazolo[5,4-c]pyridin-2-yl)urea] | – | – | round shape morphology of RBCs (Human RBC; FIG. 2; 50 μM; compared to normoxic conditions and control drug 5 mM 5-HMF): fully restore round shape morphology; prevention of sickling of RBCs from sickle cells patients (Human RBC; FIG. 2; dose response): dose dependently prevent sickling; EC50 (RBCs): 2.25 µM |
| O=C1C=CC(=O)N1c1ccccc1 [HDYB-5, 1-phenyl-1H-pyrrole-2,5-dione] | 21 | 17 | – |
